Bridge positions count the residues as written; N and C are the ends. Square brackets hold non-standard residues; d marks the D form. Peptide text beside a SMILES is read from it. Nle = CCCC[C@H](N)C(=O)O Where only a bound is given, the exact number is not on record here.

From patent publication US11780893B2, “Kv1.3 blockers” (Zealand Pharma A/S, priority 2019, dated 2023) come the findings set out here.

The target in assay [1] is T1, human Kv1.3 voltage-gated K+ channel (Homo sapiens, UniProt P22001).
T1 construct: host or cells: CHO-DUKX
The assay can be described thus: cell-based. The settings on record: inhibition of thallium flux, CHO-DUKX cells with human Kv1.3; read-out: IC50.

Assay [2] concerns the target T2, Kv1.1 (Homo sapiens, UniProt Q09470).
T2 construct: expressed in transfected cells; host or cells: Chinese Hamster Ovary (CHO)
The assay is described as follows: cell-based. The settings on record: for IC50: CHO cells, whole-cell patch clamp, read-out: Potency IC50 (nM) Kv1.1; for Selectivity Kv1.1/Kv1.3: ratio IC50[Kv1.1]/IC50[Kv1.3].

Assay [3] deals with T3, Kv1.2 (Homo sapiens, UniProt P16389).
T3 construct: expressed in transfected cells; host or cells: Chinese Hamster Ovary (CHO)
The assay can be described thus: cell-based. Particulars: CHO cells, whole-cell patch clamp; read-out: Potency IC50 (nM) Kv1.2.

For assay [4], the target named is T4, Kv1.3 (Homo sapiens, UniProt P22001).
T4 construct: expressed in transfected cells; host or cells: Chinese Hamster Ovary (CHO)
The assay can be described thus: cell-based. The settings on record: CHO cells, whole-cell patch clamp; read-out: Potency IC50 (nM) Kv1.3.

For assay [5], the target named is T5, Kv1.6 (Homo sapiens, UniProt P17658).
T5 construct: expressed in transfected cells; host or cells: Chinese Hamster Ovary (CHO)
The assay is described as follows: cell-based. Particulars: for IC50: CHO cells, whole-cell patch clamp, read-out: Potency IC50 (nM) Kv1.6.

Assay [6] concerns the target Rat whole blood (Rattus norvegicus, UniProt P15384).

Sequence of Rat whole blood (P15384 whole entry): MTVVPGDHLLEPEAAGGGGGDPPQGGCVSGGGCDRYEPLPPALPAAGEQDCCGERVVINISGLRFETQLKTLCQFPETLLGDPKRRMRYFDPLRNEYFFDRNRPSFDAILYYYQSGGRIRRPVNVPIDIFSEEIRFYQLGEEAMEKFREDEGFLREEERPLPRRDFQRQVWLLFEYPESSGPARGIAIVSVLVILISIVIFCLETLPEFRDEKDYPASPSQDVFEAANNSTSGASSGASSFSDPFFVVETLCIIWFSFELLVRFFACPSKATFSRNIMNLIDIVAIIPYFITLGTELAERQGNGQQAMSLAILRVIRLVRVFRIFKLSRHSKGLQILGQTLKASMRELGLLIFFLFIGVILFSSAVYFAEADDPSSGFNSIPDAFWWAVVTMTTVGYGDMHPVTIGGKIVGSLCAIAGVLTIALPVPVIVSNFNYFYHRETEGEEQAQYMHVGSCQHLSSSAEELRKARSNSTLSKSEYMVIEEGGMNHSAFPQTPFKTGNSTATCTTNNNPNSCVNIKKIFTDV
T2 sequence (Q09470 whole entry): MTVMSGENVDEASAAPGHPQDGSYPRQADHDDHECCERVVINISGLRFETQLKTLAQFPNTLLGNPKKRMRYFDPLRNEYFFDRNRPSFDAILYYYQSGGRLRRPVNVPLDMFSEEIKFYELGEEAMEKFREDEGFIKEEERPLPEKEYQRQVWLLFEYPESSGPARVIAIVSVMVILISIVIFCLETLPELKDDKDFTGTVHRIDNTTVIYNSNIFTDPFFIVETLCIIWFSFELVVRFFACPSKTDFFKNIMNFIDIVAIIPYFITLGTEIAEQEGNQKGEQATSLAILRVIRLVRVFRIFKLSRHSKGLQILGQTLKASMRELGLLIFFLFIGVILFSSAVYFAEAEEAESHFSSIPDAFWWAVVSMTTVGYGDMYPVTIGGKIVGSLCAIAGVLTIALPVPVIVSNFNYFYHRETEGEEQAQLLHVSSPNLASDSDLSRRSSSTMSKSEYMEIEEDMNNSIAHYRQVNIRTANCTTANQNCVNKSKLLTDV
T3 sequence (P16389 whole entry): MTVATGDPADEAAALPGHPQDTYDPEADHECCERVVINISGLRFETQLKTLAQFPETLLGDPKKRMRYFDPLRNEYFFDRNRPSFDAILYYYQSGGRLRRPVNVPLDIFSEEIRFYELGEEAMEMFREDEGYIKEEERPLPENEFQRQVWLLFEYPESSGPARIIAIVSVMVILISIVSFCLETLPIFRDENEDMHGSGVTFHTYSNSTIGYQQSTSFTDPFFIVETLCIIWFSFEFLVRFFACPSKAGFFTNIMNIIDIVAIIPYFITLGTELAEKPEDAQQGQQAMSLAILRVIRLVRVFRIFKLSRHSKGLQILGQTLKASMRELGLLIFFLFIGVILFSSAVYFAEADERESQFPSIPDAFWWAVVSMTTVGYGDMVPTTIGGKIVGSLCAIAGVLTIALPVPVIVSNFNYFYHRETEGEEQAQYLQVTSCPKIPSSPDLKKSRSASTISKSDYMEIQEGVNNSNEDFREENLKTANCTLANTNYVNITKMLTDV
T1 sequence (P22001 whole entry): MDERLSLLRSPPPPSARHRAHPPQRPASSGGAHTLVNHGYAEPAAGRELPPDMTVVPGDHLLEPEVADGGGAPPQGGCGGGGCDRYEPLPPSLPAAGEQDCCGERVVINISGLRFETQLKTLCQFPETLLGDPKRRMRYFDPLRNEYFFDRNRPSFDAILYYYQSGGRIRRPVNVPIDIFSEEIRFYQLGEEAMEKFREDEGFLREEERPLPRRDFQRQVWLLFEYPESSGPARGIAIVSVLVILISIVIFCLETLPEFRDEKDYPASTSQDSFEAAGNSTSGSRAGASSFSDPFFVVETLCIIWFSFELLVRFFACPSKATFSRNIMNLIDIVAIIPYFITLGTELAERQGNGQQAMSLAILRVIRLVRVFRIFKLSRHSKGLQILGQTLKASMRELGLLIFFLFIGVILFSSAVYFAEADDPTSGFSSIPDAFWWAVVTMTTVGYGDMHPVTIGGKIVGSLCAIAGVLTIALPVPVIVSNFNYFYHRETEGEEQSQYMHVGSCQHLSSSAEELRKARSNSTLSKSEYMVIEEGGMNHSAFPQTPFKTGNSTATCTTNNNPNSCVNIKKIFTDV
T4 sequence (P22001 whole entry): as above
T5 sequence (P17658 whole entry): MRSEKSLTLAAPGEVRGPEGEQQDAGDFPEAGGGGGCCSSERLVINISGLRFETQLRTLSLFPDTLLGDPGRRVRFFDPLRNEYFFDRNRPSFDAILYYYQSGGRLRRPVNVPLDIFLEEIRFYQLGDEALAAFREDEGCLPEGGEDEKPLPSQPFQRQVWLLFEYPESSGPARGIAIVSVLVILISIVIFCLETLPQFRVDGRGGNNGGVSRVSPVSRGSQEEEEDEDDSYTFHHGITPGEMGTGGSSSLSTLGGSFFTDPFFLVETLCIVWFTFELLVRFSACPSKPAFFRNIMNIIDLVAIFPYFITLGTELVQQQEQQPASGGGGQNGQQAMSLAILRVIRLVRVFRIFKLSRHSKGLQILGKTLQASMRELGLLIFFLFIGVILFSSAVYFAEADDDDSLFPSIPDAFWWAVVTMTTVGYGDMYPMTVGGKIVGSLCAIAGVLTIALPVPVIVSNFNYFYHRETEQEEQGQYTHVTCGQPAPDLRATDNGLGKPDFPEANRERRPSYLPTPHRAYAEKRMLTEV

On to `CC[C@H](C)[C@@H]1NC(=O)[C@H](C)NC(=O)[C@H](CCCCN)NC(=O)[C@H](CCCCN)NC(=O)[C@@H]2CSSC[C@@H](C(=O)N[C@@H](Cc3ccc(O)cc3)C(=O)N3CCC[C@H]3C(=O)N[C@@H](CCCNC(=N)N)C(N)=O)NC(=O)[C@H](CCCCN)NC(=O)[C@@H]3CSSC[C@H](NC(=O)[C@H](CCC(=O)O)NC(=O)[C@H](C(C)C)NC(=O)[C@H](CO)NC(=O)[C@H](C)NC(=O)[C@H](CO)NC(=O)[C@@H](NC(=O)[C@H](CCCNC(=N)N)NC(=O)[C@H](CCSC)NC(=O)[C@H](CC(=O)O)NC(=O)[C@H](CCSC)NC(=O)[C@@H](N)CC(N)=O)CSSC[C@H](NC(=O)[C@H](CCCCN)NC(=O)CNC(=O)[C@H](Cc4ccccc4)NC(=O)[C@H]([C@@H](C)CC)NC(=O)[C@H](CO)NC(=O)CNC1=O)C(=O)N[C@@H](CCSC)C(=O)N[C@@H](CC(N)=O)C(=O)N[C@@H](CCCCN)C(=O)N[C@@H](CCCCN)C(=O)N3)C(=O)N[C@@H](CCCCN)C(=O)N[C@@H](CCC(N)=O)C(=O)N[C@@H](CCCCN)C(=O)N2` [Compound 19] (H-NMDMRCSASVECKQKCKKAIGSIFGKCMNKKCKCYPR-NH2; disulfide 6-27, 12-32, 16-34), for which the IC50 in assay [1] was 0.12 nM; in assay [2] it was more than 3000 nM; in assay [3], 45 nM; in assay [4], 0.22 nM; in assay [5], 435 nM; in assay [6], not above 1 nM. Further, the “Selectivity Kv1.1/Kv1.3” value in assay [2] was more than 13500.

On to `CCCC[C@@H]1NC(=O)[C@@H]2CSSC[C@H](NC(=O)[C@H](CCCNC(=N)N)NC(=O)[C@H](CCCC)NC(=O)[C@H](CO)NC(=O)[C@H](CCCC)NC(=O)[C@@H](N)CC(N)=O)C(=O)N[C@@H](CO)C(=O)N[C@@H](C)C(=O)N[C@@H](CO)C(=O)N[C@@H](C(C)C)C(=O)N[C@@H](CCC(=O)O)C(=O)N[C@H]3CSSC[C@H](NC(=O)[C@H](CCCCN)NC(=O)[C@H](CCCCN)NC(=O)[C@H](CC(N)=O)NC1=O)C(=O)N[C@@H](CCCCN)C(=O)N[C@H](C(=O)N[C@@H](Cc1ccc(O)cc1)C(=O)N1CCC[C@H]1C(=O)N[C@@H](CCCNC(=N)N)C(N)=O)CSSC[C@H](NC(=O)[C@H](CCCCN)NC(=O)[C@H](CCC(N)=O)NC(=O)[C@H](CCCCN)NC3=O)C(=O)N[C@@H](CC(C)C)C(=O)N[C@@H](CCCCN)C(=O)N[C@@H](C)C(=O)N[C@@H]([C@@H](C)CC)C(=O)NCC(=O)N[C@@H](CO)C(=O)N[C@@H]([C@@H](C)CC)C(=O)N[C@@H](Cc1ccccc1)C(=O)NCC(=O)N[C@@H](CCCCN)C(=O)N2` [Compound 46] (H-N[Nle]S[Nle]RCSASVECKQKCLKAIGSIFGKC[Nle]NKKCKCYPR-NH2; disulfide 6-27, 12-32, 16-34), for which the IC50 is 0.11 nM in assay [1]; more than 3000 nM in assay [2]; 302 nM in assay [3]; 0.32 nM in assay [4]; 1390 nM in assay [5]; not above 1 nM in assay [6]. Besides, the “Selectivity Kv1.1/Kv1.3” value in assay [2] was more than 9400.

Consider `CC[C@H](C)[C@@H]1NC(=O)[C@H](C)NC(=O)[C@H](CCCCN)NC(=O)[C@H](CC(C)C)NC(=O)[C@@H]2CSSC[C@@H](C(=O)N[C@@H](Cc3ccc(O)cc3)C(=O)N3CCC[C@H]3C(=O)N[C@@H](CCCNC(=N)N)C(N)=O)NC(=O)[C@H](CCCCN)NC(=O)[C@@H]3CSSC[C@H](NC(=O)[C@H](CCC(=O)O)NC(=O)[C@H](CCCNC(=N)N)NC(=O)[C@H](CO)NC(=O)[C@H](C)NC(=O)[C@H](CO)NC(=O)[C@@H](NC(=O)[C@H](CCCNC(=N)N)NC(=O)[C@H](CCSC)NC(=O)[C@H](CC(=O)O)NC(=O)[C@H](CCSC)NC(=O)[C@@H](N)CC(N)=O)CSSC[C@H](NC(=O)[C@H](CCCCN)NC(=O)CNC(=O)[C@H](Cc4ccccc4)NC(=O)[C@H]([C@@H](C)CC)NC(=O)[C@H](CO)NC(=O)CNC1=O)C(=O)N[C@@H](CCSC)C(=O)N[C@@H](CC(N)=O)C(=O)N[C@@H](CCCCN)C(=O)N[C@@H](CCCCN)C(=O)N3)C(=O)N[C@@H](CCCCN)C(=O)N[C@@H](CCC(N)=O)C(=O)N[C@@H](CCCCN)C(=O)N2` [Compound 27] (H-NMDMRCSASRECKQKCLKAIGSIFGKCMNKKCKCYPR-NH2; disulfide 6-27, 12-32, 16-34), for which the IC50 in assay [1] is 0.065 nM; in assay [2], more than 3000 nM; in assay [3], 11 nM; in assay [4] it was 0.12 nM; in assay [5], 206 nM; in assay [6] it was not above 1 nM. Besides, in assay [2], the “Selectivity Kv1.1/Kv1.3” value is listed as more than 25900.

With `CCCC[C@@H]1NC(=O)[C@@H]2CSSC[C@H](NC(=O)[C@@H](N)CCCNC(=N)N)C(=O)N[C@@H](CO)C(=O)N[C@@H](C)C(=O)N[C@@H](CO)C(=O)N[C@@H](C(C)C)C(=O)N[C@@H](CCC(=O)O)C(=O)N[C@H]3CSSC[C@H](NC(=O)[C@H](CCCCN)NC(=O)[C@H](CCCCN)NC(=O)[C@H](CC(N)=O)NC1=O)C(=O)N[C@@H](CCCCN)C(=O)N[C@H](C(=O)N[C@@H](Cc1ccc(O)cc1)C(=O)N1CCC[C@H]1C(=O)N[C@@H](CCCNC(=N)N)C(N)=O)CSSC[C@H](NC(=O)[C@H](CCCCN)NC(=O)[C@H](CCC(N)=O)NC(=O)[C@H](CCCCN)NC3=O)C(=O)N[C@@H](CC(C)C)C(=O)N[C@@H](CCCCN)C(=O)N[C@@H](C)C(=O)N[C@@H]([C@@H](C)CC)C(=O)NCC(=O)N[C@@H](CO)C(=O)N[C@@H]([C@@H](C)CC)C(=O)N[C@@H](Cc1ccccc1)C(=O)NCC(=O)N[C@@H](CCCCN)C(=O)N2` [Compound 106] (H-RCSASVECKQKCLKAIGSIFGKC[Nle]NKKCKCYPR-NH2; disulfide 2-23, 8-28, 12-30), the IC50 in assay [1] was 0.092 nM; in assay [2], more than 3000 nM; in assay [3], 280 nM; in assay [4] it was 0.4 nM; in assay [5], 1300 nM; in assay [6], not above 1 nM. For the same molecule, the “Selectivity Kv1.1/Kv1.3” value in assay [2] is recorded as more than 7600.

In the case of `CCCC[C@@H]1NC(=O)[C@@H]2CSSC[C@H](NC(=O)[C@H](CCCCN)NC(=O)[C@H](CO)NC(C)=O)C(=O)N[C@@H](CO)C(=O)N[C@@H](C)C(=O)N[C@@H](CO)C(=O)N[C@@H](C(C)C)C(=O)N[C@@H](CCC(=O)O)C(=O)N[C@H]3CSSC[C@H](NC(=O)[C@H](CCCCN)NC(=O)[C@H](CCCCN)NC(=O)[C@H](CC(N)=O)NC1=O)C(=O)N[C@@H](CCCCN)C(=O)N[C@H](C(=O)N[C@@H](Cc1ccc(O)cc1)C(=O)N1CCC[C@H]1C(=O)N[C@@H](CCCNC(=N)N)C(N)=O)CSSC[C@H](NC(=O)[C@H](CCCCN)NC(=O)[C@H](CCC(N)=O)NC(=O)[C@H](CCCCN)NC3=O)C(=O)N[C@@H](CC(C)C)C(=O)N[C@@H](CCCCN)C(=O)N[C@@H](C)C(=O)N[C@@H]([C@@H](C)CC)C(=O)NCC(=O)N[C@@H](CO)C(=O)N[C@@H]([C@@H](C)CC)C(=O)N[C@@H](Cc1ccccc1)C(=O)NCC(=O)N[C@@H](CCCCN)C(=O)N2` [Compound 107] (Ac-SKCSASVECKQKCLKAIGSIFGKC[Nle]NKKCKCYPR-NH2; disulfide 3-24, 9-29, 13-31), the IC50 is 0.084 nM in assay [1]; more than 3000 nM in assay [2]; 196 nM in assay [3]; 1 nM in assay [4]; 1450 nM in assay [5]; not above 1 nM in assay [6]. In assay [2], the “Selectivity Kv1.1/Kv1.3” value is given as more than 3000.

Consider `CC[C@H](C)[C@@H]1NC(=O)[C@H](C)NC(=O)[C@H](CCCCN)NC(=O)[C@H](CC(C)C)NC(=O)[C@@H]2CSSC[C@@H](C(=O)N[C@@H](Cc3ccc(O)cc3)C(=O)N3CCC[C@H]3C(=O)N[C@@H](CCCNC(=N)N)C(N)=O)NC(=O)[C@H](CCCCN)NC(=O)[C@@H]3CSSC[C@H](NC(=O)[C@H](CCC(=O)O)NC(=O)[C@H](C(C)C)NC(=O)[C@H](CO)NC(=O)[C@H]([C@@H](C)CC)NC(=O)[C@H](CO)NC(=O)[C@@H](NC(=O)[C@H](CCCNC(=N)N)NC(=O)[C@H](CCSC)NC(=O)[C@H](CC(=O)O)NC(=O)[C@H](CCSC)NC(=O)[C@@H](N)CC(N)=O)CSSC[C@H](NC(=O)[C@H](CCCCN)NC(=O)CNC(=O)[C@H](Cc4ccccc4)NC(=O)[C@H]([C@@H](C)CC)NC(=O)[C@H](CO)NC(=O)CNC1=O)C(=O)N[C@@H](CCSC)C(=O)N[C@@H](CC(N)=O)C(=O)N[C@@H](CCCCN)C(=O)N[C@@H](CCCCN)C(=O)N3)C(=O)N[C@@H](CCCCN)C(=O)N[C@@H](CCC(N)=O)C(=O)N[C@@H](CCCCN)C(=O)N2` [Compound 26] (H-NMDMRCSISVECKQKCLKAIGSIFGKCMNKKCKCYPR-NH2; disulfide 6-27, 12-32, 16-34), for which the IC50 in assay [1] was 0.092 nM; in assay [2], more than 3000 nM; in assay [3] it was 43 nM; in assay [4] it was 0.26 nM; in assay [5], more than 3000 nM; in assay [6] it was not above 1 nM. Further, the “Selectivity Kv1.1/Kv1.3” value in assay [2] is recorded as more than 11800. Further, the “Selectivity Kv1.6/Kv1.3” value in assay [5] (ratio IC50[Kv1.6]/IC50[Kv1.3]) is listed as more than 11800.
